Source: patent US9732075B2, “Benzimidazole-proline derivatives” (IDORSIA PHARMACEUTICALS LTD, priority 2012, dated 2017)

Assays:
human orexin-1 receptor = human orexin-1 receptor (Homo sapiens (Human), UniProt O43613); test: In vitro assay: intracellular calcium measurements (FLIPR), antagonistic activity; assay type: cell-based; details: CHO cells expressing human orexin-1 receptor, orexin-A agonist, geometric mean, read-out: IC50 Ox1
Experimental: (§1) In Vitro Assay: Intracellular Calcium Measurements:
(§2) Chinese hamster ovary (CHO) cells expressing the human orexin-1 receptor and the human orexin-2 receptor, respectively, are grown in culture medium (Ham F-12 with L-Glutamine) containing 300 μg/ml G418, 100 U/ml penicillin, 100 μg/ml streptomycin and 10% heat inactivated fetal calf serum (FCS). The cells are seeded at 20,000 cells/well into 384-well black clear bottom sterile plates (Greiner). The seeded plates are incubated overnight at 37° C. in 5% CO2.
(§3) Human orexin-A as an agonist is prepared as 1 mM stock solution in MeOH: water (1:1), diluted in HBSS containing 0.1% bovine serum albumin (BSA), NaHCO3: 0.375 g/l and 20 mM HEPES for use in the assay at a final concentration of 3 nM.
(§4) Antagonists are prepared as 10 mM stock solution in DMSO, then diluted in 384-well plates using DMSO followed by a transfer of the dilutions into in HBSS containing 0.1% bovine serum albumin (BSA), NaHCO3: 0.375 g/l and 20 mM HEPES. On the day of the assay, 50 μl of staining buffer (HBSS containing 1% FCS, 20 mM HEPES, NaHCO3: 0.375 g/l, 5 mM probenecid (Sigma) and […] of the fluorescent calcium indicator fluo-4 AM (1 mM stock solution in DMSO, containing 10% pluronic) is added to each well. The 384-well cell-plates are incubated for 50 min at 37° C. in 5% CO2 followed by equilibration at RT for 30 min before measurement.
(§5) Within the Fluorescent Imaging Plate Reader (FLIPR Tetra, Molecular Devices), antagonists are added to the plate in a volume of 10 μl/well, incubated for 120 min and finally 10 μl/well of agonist is added. Fluorescence is measured for each well at 1 second intervals, and the height of each fluorescence peak is compared to the height of the fluorescence peak induced by an approximate EC70 (for example 5 nM) of orexin-A with vehicle in place of antagonist. The IC50 value (the concentration of compound needed to inhibit 50% of the agonistic response) is determined and may be normalized using the obtained IC50 value of a on-plate reference compound. Optimized conditions are achieved by adjustment of pipetting speed and cell splitting regime. The calculated IC50 values may fluctuate depending on the daily cellular assay performance. Fluctuations of this kind are known to those skilled in the art. Average IC50 values from several measurements are given as geometric mean values.

human orexin-2 receptor = human orexin-2 receptor (Homo sapiens (Human), UniProt O43614); test: as above; assay type: cell-based; details: CHO cells expressing human orexin-2 receptor, orexin-A agonist, geometric mean, read-out: IC50 Ox2
Sequence of human orexin-2 receptor (O43614 whole entry): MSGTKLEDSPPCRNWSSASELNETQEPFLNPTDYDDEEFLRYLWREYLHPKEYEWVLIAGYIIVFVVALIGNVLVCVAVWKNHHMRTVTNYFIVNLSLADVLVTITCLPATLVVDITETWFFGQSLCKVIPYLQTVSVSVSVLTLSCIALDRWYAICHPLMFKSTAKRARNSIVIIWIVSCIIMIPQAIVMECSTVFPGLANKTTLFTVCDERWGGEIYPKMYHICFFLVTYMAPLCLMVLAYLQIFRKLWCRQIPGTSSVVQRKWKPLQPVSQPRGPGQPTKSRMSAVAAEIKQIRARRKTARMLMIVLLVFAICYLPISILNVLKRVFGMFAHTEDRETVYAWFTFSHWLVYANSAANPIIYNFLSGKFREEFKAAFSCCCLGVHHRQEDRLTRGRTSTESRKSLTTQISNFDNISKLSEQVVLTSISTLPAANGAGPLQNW
Experimental: as §1, §2, §3, §4, §5

Sequence of human orexin-1 receptor (O43613 whole entry): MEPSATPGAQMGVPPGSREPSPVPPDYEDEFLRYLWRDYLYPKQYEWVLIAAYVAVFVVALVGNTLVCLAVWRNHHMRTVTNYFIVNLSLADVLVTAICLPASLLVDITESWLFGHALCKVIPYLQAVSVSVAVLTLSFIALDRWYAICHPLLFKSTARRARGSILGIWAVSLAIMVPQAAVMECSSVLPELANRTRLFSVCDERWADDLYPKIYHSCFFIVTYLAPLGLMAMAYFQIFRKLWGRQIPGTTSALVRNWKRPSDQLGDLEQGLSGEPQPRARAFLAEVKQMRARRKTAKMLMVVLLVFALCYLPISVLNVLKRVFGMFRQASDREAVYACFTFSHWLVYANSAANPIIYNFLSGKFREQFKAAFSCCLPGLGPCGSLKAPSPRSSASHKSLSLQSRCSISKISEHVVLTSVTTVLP

SMILES	IC50 (human orexin-1 receptor)	IC50 (human orexin-2 receptor)
COc1ccc(-n2nccn2)c(C(=O)N2CCC[C@H]2c2nc3ccc(OC)cc3[nH]2)c1 [Ex. 1.158]	538 nM	20 nM
CSc1cccc2nc([C@@H]3CCCN3C(=O)c3cncnc3-c3ccc(C)c(C)c3)[nH]c12 [Ex. 1.83]	17 nM	36 nM
COc1cccc2[nH]c([C@@H]3[C@@H](C)CCN3C(=O)c3nc(C)sc3-c3cccc(Cl)c3)nc12 [Ex. 4.14]	15 nM	4030 nM
Cc1cc(C)c2nc([C@@H]3[C@@H](C)CCN3C(=O)c3nc(C)sc3-c3cccc(Cl)c3)[nH]c2c1 [Ex. 4.16]	1 nM	250 nM
CSc1cccc2nc([C@@H]3CCCN3C(=O)c3nc(C)sc3-c3ccc(Br)cc3)[nH]c12 [Ex. 1.60]	61 nM	48 nM
Cc1nc(C(=O)N2CCC[C@H]2c2nc3c(O)cccc3[nH]2)c(-c2cccc(Cl)c2)s1 [Ex. 1.12]	273 nM	344 nM
CSc1ccc2nc([C@@H]3CCCN3C(=O)c3nc(C4CC4)sc3-c3ccccc3)[nH]c2c1 [Ex. 1.35]	117 nM	99 nM
Cc1nc(C(=O)N2CCCC2c2nc3cc(OC(F)(F)F)ccc3[nH]2)c(-c2cccc(Cl)c2)s1 (stereo not shown) [Ex. 1.108]	171 nM	835 nM
COc1ccc2nc([C@@H]3C[C@@H](OC)CN3C(=O)c3cc(Cl)ccc3-n3nccn3)[nH]c2c1 [Ex. 3.19]	1930 nM	21 nM
Cc1cc2[nH]c([C@@H]3[C@@H](C)CCN3C(=O)c3c(-c4ncccn4)ccc(C)c3F)nc2cc1Cl [Ex. 4.132]	87 nM	1320 nM
CSc1ccc2nc([C@@H]3CCCN3C(=O)c3nc(C)sc3-c3cccc(C(F)(F)F)c3)[nH]c2c1 [Ex. 1.38]	360 nM	110 nM
Cc1ccc(-c2sc(C)nc2C(=O)N2CC[C@H](C)[C@H]2c2nc3c(C(F)(F)F)cccc3[nH]2)cc1 [Ex. 4.153]	–	80 nM
Cc1ccc(-n2nccn2)c(C(=O)N2CC[C@H](C)[C@H]2c2nc3c(C)c(Cl)ccc3[nH]2)c1F [Ex. 4.68]	2 nM	–
Cc1nc(C(=O)N2CCCC2c2nc3cc(F)c(Cl)cc3[nH]2)c(-c2cccc(Cl)c2)s1 (stereo not shown) [Ex. 1.98]	105 nM	–
CO[C@H]1CN(C(=O)c2cc(C)c(C)cc2-n2nccn2)C(C)(c2nc3c(C)c(Cl)ccc3[nH]2)C1 (stereo partly shown) [Ex. 3.48]	–	4 nM
Cc1nc(C(=O)N2CC[C@H](C)[C@H]2c2nc3cc(C(F)(F)F)ccc3[nH]2)c(-c2ccc(C)c(C)c2)s1 [Ex. 4.145]	–	635 nM

Next, values leading:

IC50 (human orexin-1 receptor)	IC50 (human orexin-2 receptor)	SMILES
25 nM	29 nM	Cc1ccc(-n2nccn2)c(C(=O)N2CCC[C@@]2(C)c2nc3c4c(ccc3[nH]2)OCCO4)c1 [Ex. 5.33]
38 nM	113 nM	Cc1ccc(-c2ccc(C#N)cc2)c(C(=O)N2CCC[C@@]2(C)c2nc3cc(C(F)(F)F)c(Cl)cc3[nH]2)c1 [Ex. 5.160]
32 nM	59 nM	Cc1ccc(-n2nccn2)c(C(=O)N2CCC[C@@]2(C)c2nc3c(C)cccc3[nH]2)c1 [Ex. 5.6]
76 nM	10 nM	C=C1C[C@@H](c2nc3cccc(SC)c3[nH]2)N(C(=O)c2cc(C)ccc2-n2nccn2)C1 [Ex. 6.59]
26 nM	239 nM	Cc1nc(C(=O)N2CCC[C@@]2(C)c2nc3c(F)c(F)ccc3[nH]2)c(-c2cccc(F)c2)s1 [Ex. 5.212]
23 nM	17 nM	CCn1c([C@]2(C)CCCN2C(=O)c2cc(C)ccc2-c2cccc(C)c2)nc2cc(C)c(C)cc21 [Ex. 7.27]
4 nM	3 nM	C=C1CC(c2nc3c(OC)ccc(OC)c3[nH]2)N(C(=O)c2nc(C3CC3)sc2-c2cccc(C)c2)C1 (stereo not shown) [Ex. 6.98]
12 nM	58 nM	Cc1ccc(C(=O)N2CCC[C@@]2(C)c2nc3cc(C(F)(F)F)ccc3[nH]2)c(-n2nccn2)c1 [Ex. 5.171]
9 nM	0.5 nM	C=C1C[C@@H](c2nc3ccc(Cl)c(C)c3[nH]2)N(C(=O)c2cc(OC)ccc2-n2nccn2)C1 [Ex. 6.131]
33 nM	4 nM	C=C1C[C@@H](c2nc3cc(C(C)(C)C)ccc3[nH]2)N(C(=O)c2ccc(C)cc2-n2nccn2)C1 [Ex. 6.166]
3 nM	6 nM	Cc1cc(C(=O)N2CCC[C@@]2(C)c2nc3cc(C)c(C)cc3[nH]2)c(-n2nccn2)cc1C [Ex. 5.58]
112 nM	26 nM	Cc1cc2nc([C@]3(C)CCCN3C(=O)c3ccccc3-n3nccn3)[nH]c2cc1C [Ex. 5.61]
108 nM	42 nM	C=C1CC(c2nc3cc4ccccc4cc3[nH]2)N(C(=O)c2cc(C)sc2-c2ccc(C)c(C)c2)C1 (stereo not shown) [Ex. 6.85]
115 nM	517 nM	C[C@@]1(c2nc3c(F)c(F)ccc3[nH]2)CCCN1C(=O)c1cc(Cl)ccc1-n1nccn1 [Ex. 5.200]
24 nM	58 nM	Cc1ccc(C(=O)N2CCC[C@@]2(C)c2nc3cc(F)c(Br)cc3[nH]2)c(-n2nccn2)c1 [Ex. 5.130]
22 nM	18 nM	Cc1ccc(-c2ccc(F)cc2)c(C(=O)N2CCC[C@@]2(C)c2nc3c(C)c(C)ccc3[nH]2)c1 [Ex. 5.115]
16 nM	0.7 nM	C=C1C[C@@H](c2nc3cccc(C)c3[nH]2)N(C(=O)c2nc(C)sc2-c2cccc(OC)c2)C1 [Ex. 6.114]
11 nM	65 nM	Cc1ccc(-c2ccc(F)cc2)c(C(=O)N2CCC[C@@]2(C)c2nc3cc(C)c(C)cc3n2C)c1 [Ex. 7.15]

IC50 (human orexin-1 receptor)	IC50 (human orexin-2 receptor)	SMILES
19 nM	72 nM	Cc1c(Cl)ccc2nc([C@]3(C)CCCN3C(=O)c3cc(F)ccc3-c3ccccn3)[nH]c12 [Ex. 5.219]
13 nM	4 nM	C=C1C[C@@H](c2nc3ccc(Cl)c(C)c3[nH]2)N(C(=O)c2c(-n3nccn3)ccc(C)c2F)C1 [Ex. 6.132]
1 nM	3 nM	Cc1ccc(-n2nccn2)c(C(=O)N2CCC[C@@]2(C)c2nc3c(C)c(Cl)ccc3n2C)c1 [Ex. 7.3]
41 nM	57 nM	COc1ccc(-c2ccc(OC)c(F)c2C(=O)N2CCC[C@@]2(C)c2nc3c(C)c(Cl)ccc3[nH]2)cc1 [Ex. 5.297]
10 nM	6 nM	Cc1nc(C(=O)N2CCC[C@@]2(C)c2nc3c(C)cccc3[nH]2)c(-c2cccc(Cl)c2)s1 [Ex. 5.4]
232 nM	473 nM	COc1cc2nc([C@]3(C)CCCN3C(=O)c3cncnc3-c3ccccc3)[nH]c2cc1OC [Ex. 5.90]
4 nM	6 nM	C=C1CC(c2nc3cccc(SC)c3[nH]2)N(C(=O)c2cc(C)sc2-c2ccc(C)c(C)c2)C1 (racemic) [Ex. 6.72]
20 nM	40 nM	Cc1ccc(-c2ccccc2F)c(C(=O)N2CCC[C@@]2(C)c2nc3cc(C(F)(F)F)c(Cl)cc3[nH]2)c1 [Ex. 5.151]
56 nM	401 nM	Cc1ccc(C(=O)N2CCC[C@@]2(C)c2nc3cc(OC(F)(F)F)ccc3[nH]2)c(-c2ccccc2)c1 [Ex. 5.242]
2510 nM	118 nM	C=C1C[C@@H](c2nc3cc(OC)ccc3[nH]2)N(C(=O)c2nccnc2-c2ccc(C)cc2)C1 [Ex. 6.4]
5 nM	263 nM	Cc1c(Cl)ccc2[nH]c([C@]3(C)CCCN3C(=O)c3nc(-c4ccccc4F)sc3-c3ccc(F)cc3)nc12 [Ex. 5.233]
1060 nM	77 nM	C=C1C[C@@H](c2nc3cccc(C)c3[nH]2)N(C(=O)c2nc(C)ccc2-n2cccn2)C1 [Ex. 6.105]
1530 nM	29 nM	C=C1C[C@@H](c2nc3cc(OC)ccc3[nH]2)N(C(=O)c2cc(F)ccc2-n2nccn2)C1 [Ex. 6.18]
–	8 nM	Cc1nc(C(=O)N2CCC[C@@]2(C)c2nc3c(C)c(C)c(Br)cc3[nH]2)c(-c2cc(F)cc(F)c2)s1 [Ex. 5.274]
–	6 nM	Cc1cc(C(=O)N2CCC[C@@]2(C)c2nc3cc(C(F)(F)F)c(Cl)cc3[nH]2)c(-n2nccn2)cc1C [Ex. 5.137]
–	8 nM	Cc1ccc(-c2ncccn2)c(C(=O)N2CCC[C@@]2(C)c2nc3cc(C(F)(F)F)c(Cl)cc3[nH]2)c1 [Ex. 5.279]
117 nM	–	C[C@@]1(c2nc3cc(F)c(Br)cc3[nH]2)CCCN1C(=O)c1cc(F)ccc1-n1nccn1 [Ex. 5.126]
87 nM	–	Cc1ccc(-c2ncccn2)c(C(=O)N2CCC[C@@]2(C)c2nc3ccc(F)c(F)c3[nH]2)c1 [Ex. 5.283]
